These results are taken from patent US8741836B2, “Polypeptides” (Novo Nordisk A/S, priority 2011, dated 2014).

Starred links: 1 amine or outer side, 2 acyl side, 3 side chain; linkers in the order of their positions; H or OH if unused. Positions of bridges follow the written chain, without caps; N, C: chain ends. Residues, ends and D or L forms follow the SMILES beside them. *: point of attachment. C20 diacid = O=C(O)CCCCCCCCCCCCCCCCCCC(=O)*; γGlu = O=C(O)[C@H](CCC(=O)[*:2])N[*:1]

The nature of one series: Assay (III) ThT fibrillation assay for physical stability. As to conditions: pH 4.0. Type of series: physicochemical. The text has this:
Assay (III)—ThT Fibrillation Assays for the Assessment of Physical Stability of Protein formulations Low physical stability of a polypeptide may lead to amyloid fibril formation, which is observed as well-ordered, thread-like macromolecular structures in the sample eventually resulting in gel formation. This has traditionally been measured by visual inspection of the sample. However, that kind of measurement is very subjective and depending on the observer. Therefore, the application of a small molecule indicator probe is much more advantageous. Thioflavin T (ThT) is such a probe and has a distinct fluorescence signature when binding to fibrils [Naiki et al. (1989) Anal. Biochem. 177, 244-249; LeVine (1999) Methods. Enzymol. […], 274-284]. The time course for fibril formation can be described by a sigmoidal curve with the following expression [Nielsen et al. (2001) Biochemistry 40, 6036-6046]: [formula] Here, F is the ThT fluorescence at the time t. The constant t0 is the time needed to reach 50% of maximum fluorescence. […] Few of those intermediates nucleate to form a template onto which further intermediates may assembly and the fibrillation proceeds. The lag-time corresponds to the interval in which the critical mass of nucleus is built up and the apparent rate constant is the rate with which the fibril itself is formed. Sample Preparation Samples were prepared freshly before each assay. Each sample composition is described in each example. The pH of the sample was adjusted to the desired value using appropriate amounts of concentrated NaOH and HClO4 or HCl. Thioflavin T was added to the samples from a stock solution in H2O to a final concentration of 1 μM. Sample aliquots of 200 μl were placed in a 96 well microtiter plate (Packard OptiPlate™-96, white polystyrene). Usually, four or eight replica of each sample (corresponding to one test condition) were placed in one column of wells. The plate was sealed with Scotch Pad (Qiagen). Incubation and Fluorescence Measurement Incubation at given temperature, shaking and measurement of the ThT fluorescence emission were done in a Fluoroskan Ascent FL fluorescence platereader or Varioskan platereader (Thermo Labsystems). The temperature was adjusted to 37° C. The orbital shaking was adjusted to 960 rpm with an amplitude of 1 mm in all the presented data. Fluorescence measurement was done using excitation through a 444 nm filter and measurement of emission through a 485 nm filter. Each run was initiated by incubating the plate at the assay temperature for 10 min. The plate was measured every 20 minutes for a desired period of time. Between each measurement, the plate was shaken and heated as described. Data Handling The measurement points were saved in Microsoft Excel format for further processing and curve drawing and fitting was performed using GraphPad Prism. The background emission from ThT in the absence of fibrils was negligible. The data points are typically a mean of four or eight samples and shown with standard deviation error bars. Only data obtained in the same experiment (i.e. samples on the same plate) are presented in the same graph ensuring a relative measure of fibrillation between experiments. The data set may be fitted to Eq. (1). However, since full sigmodial curves in this case are not always achieved during the measurement time, the degree of fibrillation is expressed as ThT fluorescence tabulated as the mean of the samples and shown with the standard deviation at various time points. Measurement of Initial and Final Concentrations The polypeptide concentration in each of the tested formulations were measured both before application in the ThT fibrillation assay (“Initial”) and after completion of the ThT fibrillation (“After ThT assay”). Concentrations were determined by reverse HPLC methods using a pramlintide standard as a reference. Before measurement after completion 150 μl was collected from each of the replica and transferred to an Eppendorf tube. […]
For `CC[C@H](C)[C@H](NC(=O)[C@@H]1CCCN1C(=O)CNC(=O)[C@H](Cc1ccccc1)NC(=O)[C@H](CC(N)=O)NC(=O)[C@H](CCC(N)=O)NC(=O)[C@H](CO)NC(=O)[C@H](CO)NC(=O)[C@H](Cc1c[nH]cn1)NC(=O)[C@H](CCCNC(=N)N)NC(=O)[C@H](CC(C)C)NC(=O)[C@H](Cc1ccccc1)NC(=O)[C@H](CCC(=O)O)NC(=O)[C@H](C)NC(=O)[C@H](CC(C)C)NC(=O)[C@H](CCCNC(=N)N)NC(=O)[C@H](CCC(N)=O)NC(=O)[C@@H](NC(=O)[C@H](C)NC(=O)[C@@H]1CSSC[C@H](NC(=O)[C@H](CCC(=O)O)NC(=O)[C@H](CCCNC(=N)N)NC(=O)[C@H](CCC(=O)O)NC(=O)CC[C@H](NC(=O)CCCCCCCCCCCCCCCCCCC(=O)O)C(=O)O)C(=O)N[C@@H](CC(N)=O)C(=O)N[C@@H]([C@@H](C)O)C(=O)N[C@@H](C)C(=O)N[C@@H]([C@@H](C)O)C(=O)N1)[C@@H](C)O)C(=O)N[C@@H](CC(C)C)C(=O)N1CCC[C@H]1C(=O)N1CCC[C@H]1C(=O)N[C@H](C(=O)N[C@@H](CCC(N)=O)C(=O)N[C@H](C(=O)NCC(=O)N[C@@H](CO)C(=O)N[C@@H](CCC(N)=O)C(=O)N[C@H](C(=O)N1CCC[C@H]1C(N)=O)[C@@H](C)O)C(C)C)[C@@H](C)O` [Example 163, N-alpha-[(S)-4-Carboxy-4-(19-carboxynonadecanoylamino)butyryl]-Glu-Arg-[Glu1,Glu14,Arg17,Gln21,Gln31,Gln35,Pro37]-pramlintide] ({C20 diacid-γGlu}-ERECNTATCATQRLAEFLRHSSQNFGPILPPTQVGSQTP-NH2; disulfide 4-9 (inferred)), the “ThT pH 4.0 lag time (physical stability in fibrillogenesis assay)” value is recorded as greater than 45 h.

Staying with this series, now noted: pH 4.0, ThT fibrillation assay.
For the compound `CC[C@H](C)[C@H](NC(=O)[C@@H]1CCCN1C(=O)CNC(=O)[C@H](Cc1ccccc1)NC(=O)[C@H](CC(N)=O)NC(=O)[C@H](CC(N)=O)NC(=O)[C@H](CO)NC(=O)[C@H](CO)NC(=O)[C@H](Cc1c[nH]cn1)NC(=O)[C@H](Cc1c[nH]cn1)NC(=O)[C@H](CC(C)C)NC(=O)[C@H](Cc1ccccc1)NC(=O)[C@H](CCC(=O)O)NC(=O)[C@H](C)NC(=O)[C@H](CC(C)C)NC(=O)[C@H](CCCNC(=N)N)NC(=O)[C@H](CCC(N)=O)NC(=O)[C@@H](NC(=O)[C@H](C)NC(=O)[C@@H]1CSSC[C@H](NC(=O)[C@H](Cc2c[nH]cn2)NC(=O)[C@H](Cc2c[nH]cn2)NC(=O)[C@H](Cc2c[nH]cn2)NC(=O)CC[C@H](NC(=O)CCCCCCCCCCCCCCCCCCC(=O)O)C(=O)O)C(=O)N[C@@H](Cc2c[nH]cn2)C(=O)N[C@@H]([C@@H](C)O)C(=O)N[C@@H](C)C(=O)N[C@@H]([C@@H](C)O)C(=O)N1)[C@@H](C)O)C(=O)N[C@@H](CC(C)C)C(=O)N1CCC[C@H]1C(=O)N1CCC[C@H]1C(=O)N[C@H](C(=O)N[C@@H](CC(N)=O)C(=O)N[C@H](C(=O)NCC(=O)N[C@@H](CO)C(=O)N[C@@H](Cc1c[nH]cn1)C(=O)N[C@H](C(=O)N[C@@H](Cc1ccc(O)cc1)C(N)=O)[C@@H](C)O)C(C)C)[C@@H](C)O` [Example 32, N-alpha-[(S)-4-Carboxy-4-(19-carboxynonadecanoylamino)butyryl]-His-His-[His1,His3,Glu14,His17,His35]-pramlintide] ({C20 diacid-γGlu}-HHHCHTATCATQRLAEFLHHSSNNFGPILPPTNVGSHTY-NH2; disulfide 4-9), the “ThT pH 4.0 lag time” value is greater than 45 h. As to `CC[C@H](C)[C@H](NC(=O)[C@@H]1CCCN1C(=O)CNC(=O)[C@H](Cc1ccccc1)NC(=O)[C@H](CC(N)=O)NC(=O)[C@H](CCC(N)=O)NC(=O)[C@H](CO)NC(=O)[C@H](CO)NC(=O)[C@H](Cc1c[nH]cn1)NC(=O)[C@H](CCCNC(=N)N)NC(=O)[C@H](CC(C)C)NC(=O)[C@H](Cc1ccccc1)NC(=O)[C@H](CCC(=O)O)NC(=O)[C@H](C)NC(=O)[C@H](CC(C)C)NC(=O)[C@H](CCCNC(=N)N)NC(=O)[C@H](CCC(N)=O)NC(=O)[C@@H](NC(=O)[C@H](C)NC(=O)[C@@H]1CSSC[C@H](NC(=O)[C@H](CCC(=O)O)NC(=O)[C@H](CCCNC(=N)N)NC(=O)[C@H](CCC(=O)O)NC(=O)CC[C@H](NC(=O)CCCCCCCCCCCCCCCCCCC(=O)O)C(=O)O)C(=O)N[C@@H](CC(N)=O)C(=O)N[C@@H]([C@@H](C)O)C(=O)N[C@@H](C)C(=O)N[C@@H]([C@@H](C)O)C(=O)N1)[C@@H](C)O)C(=O)N[C@@H](CC(C)C)C(=O)N1CCC[C@H]1C(=O)N1CCC[C@H]1C(=O)N[C@H](C(=O)N[C@@H](CCC(N)=O)C(=O)N[C@H](C(=O)NCC(=O)N[C@@H](CO)C(=O)N[C@@H](CCC(N)=O)C(=O)N[C@H](C(=O)N1CCC[C@H]1C(N)=O)[C@@H](C)O)C(C)C)[C@@H](C)O` [Example 163, N-alpha-[(S)-4-Carboxy-4-(19-carboxynonadecanoylamino)butyryl]-Glu-Arg-[Glu1,Glu14,Arg17,Gln21,Gln31,Gln35,Pro37]-pramlintide] ({C20 diacid-γGlu}-ERECNTATCATQRLAEFLRHSSQNFGPILPPTQVGSQTP-NH2; disulfide 4-9 (inferred)), the “ThT pH 4.0 lag time” value is greater than 45 h.
